Legend:
Test in all cases: relative viability (nuclei count vs DMSO), 5 days (fraction); higher = more cells survive
Palbociclib = compound: CC(=O)c1c(C)c2cnc(Nc3ccc(N4CCNCC4)cn3)nc2n(C2CCCC2)c1=O [Palbociclib]
Outline: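 MetaXpress counted nuclei in 4× images of lung cancer cell lines that had been fixed, permeabilised and Hoechst-stained in one step. Before that, cells in 1536-well plates were kept overnight at 37 °C, pinned with five √10-spaced library-drug doses on vehicle-anchored plates, and cultured 5 days without medium change. Viability takes treated-well nuclei over vehicle-well nuclei and uses the median across plates. Plates were accepted only at control CV below 25% and at least one doubling.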

Palbociclib + Olaparib = compound: CC(=O)c1c(C)c2cnc(Nc3ccc(N4CCNCC4)cn3)nc2n(C2CCCC2)c1=O [Palbociclib] + O=C(c1cc(Cc2n[nH]c(=O)c3ccccc23)ccc1F)N1CCN(C(=O)C2CC2)CC1 [Olaparib] (partner 8 µM)
Outline: (§1)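 Medians of duplicate plates are given as relative viability. That measure is the nuclei count in treated wells divided by the count in vehicle wells. Counts were taken on 4× images of lung cancer cell lines in 1536-well plates, 5 days after pin-tool dosing the day after seeding with one drug alone or a fixed anchor-drug dose plus five library-drug doses (not always all listed) in √10 steps.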

Palbociclib + Crizotinib = compound: CC(=O)c1c(C)c2cnc(Nc3ccc(N4CCNCC4)cn3)nc2n(C2CCCC2)c1=O [Palbociclib] + C[C@@H](Oc1cc(-c2cnn(C3CCNCC3)c2)cnc1N)c1c(Cl)ccc(F)c1Cl [Crizotinib] (partner 1 µM)
Outline: as §1

| Cell Line | relative viability (Palbociclib; 0.01 µM) | relative viability (Palbociclib; 0.03162 µM) | relative viability (Palbociclib; 0.1 µM) | relative viability (Palbociclib; 0.3162 µM) | relative viability (Palbociclib; 0.5 µM, anchor plate) | relative viability (Palbociclib; 1 µM) | relative viability (Palbociclib + Olaparib; first compound 0.01 µM) | relative viability (Palbociclib + Olaparib; first compound 0.03162 µM) | relative viability (Palbociclib + Olaparib; first compound 0.1 µM) | relative viability (Palbociclib + Olaparib; first compound 0.3162 µM) | relative viability (Palbociclib + Olaparib; first compound 1 µM) | relative viability (Palbociclib + Crizotinib; first compound 0.01 µM) | relative viability (Palbociclib + Crizotinib; first compound 0.03162 µM) | relative viability (Palbociclib + Crizotinib; first compound 0.1 µM) | relative viability (Palbociclib + Crizotinib; first compound 0.3162 µM) | relative viability (Palbociclib + Crizotinib; first compound 1 µM) |
| --- | --- | --- | --- | --- | --- | --- | --- | --- | --- | --- | --- | --- | --- | --- | --- | --- |
| 201T | 1.02 | 0.863 | 0.9 | 0.867 | 0.349 | 0.571 | 0.817 | 0.819 | 0.781 | 0.684 | 0.65 | 1.01 | 0.992 | 0.922 | 0.93 | 0.806 |
| A549 | 0.983 | 0.71 | 0.68 | 0.692 | – | 0.448 | 0.345 | 0.0522 | 0.282 | 0.3 | 0.231 | 0.776 | 0.65 | 0.472 | 0.362 | 0.29 |
| A-427 | 0.941 | 0.775 | 0.755 | 0.727 | 0.529 | 0.534 | 0.737 | 0.626 | 0.514 | 0.514 | 0.391 | 0.963 | 0.83 | 0.668 | 0.728 | 0.614 |
| ABC-1 | 1.02 | 0.853 | 0.81 | 0.785 | 0.755 | 0.686 | 0.89 | 0.757 | 0.602 | 1.04 | 0.898 | 0.935 | 1.16 | 0.93 | 0.832 | 0.591 |
| BEN | 1.04 | 0.813 | 0.778 | 0.814 | 0.487 | 0.476 | 1.01 | 0.992 | 0.615 | 0.945 | 0.594 | 0.831 | 0.701 | 0.719 | 0.722 | 0.475 |
| CAL-12T | 1 | 0.851 | 0.75 | 0.651 | 0.446 | 0.611 | 0.667 | 0.675 | 0.577 | 0.531 | 0.505 | 0.598 | 0.464 | 0.466 | 0.511 | 0.374 |
| COR-L23 | 1.05 | 0.886 | 0.739 | 0.808 | 0.293 | 0.528 | 0.312 | 0.271 | 0.233 | 0.194 | 0.175 | 0.707 | 0.551 | 0.427 | 0.32 | 0.287 |
| COR-L 105 | 1 | 0.724 | 0.616 | 0.651 | 0.408 | 0.473 | 0.711 | 0.552 | 0.564 | 0.475 | 0.432 | 0.726 | 0.555 | 0.451 | 0.447 | 0.276 |
| Calu-6 | 1.06 | 0.919 | 0.833 | 0.79 | – | 0.588 | 0.612 | 0.549 | 0.511 | 0.528 | 0.417 | 0.867 | 0.68 | 0.662 | 0.551 | 0.451 |
| ChaGo-K-1 | 1.02 | 0.778 | 1.04 | 1.02 | 0.939 | 1.02 | 0.423 | – | 0.437 | 0.467 | 0.444 | 0.961 | 0.639 | 1.07 | 1.12 | 1.13 |
| EBC-1 | 1.02 | 0.809 | 0.662 | 0.543 | – | 0.248 | 0.696 | 0.647 | 0.452 | 0.514 | 0.241 | 0.193 | 0.165 | 0.195 | 0.17 | 0.18 |
| EKVX | 1.12 | 0.733 | 0.766 | 0.882 | 0.394 | 0.544 | 0.915 | – | 0.647 | 0.608 | 0.438 | 1.13 | 0.898 | 0.818 | 0.781 | 0.499 |
| EMC-BAC-2 | 0.999 | 0.749 | 0.791 | 0.736 | 0.514 | 0.589 | 0.511 | 0.48 | 0.506 | 0.51 | 0.448 | 0.738 | 0.716 | 0.699 | 0.646 | 0.496 |
| EPLC-272H | 1.07 | – | 0.798 | 0.828 | 0.33 | 0.456 | 0.779 | 0.807 | 0.681 | 0.615 | 0.313 | 0.967 | – | 0.779 | 0.893 | 0.799 |
| H3255 | 1.04 | 0.922 | 0.823 | 0.904 | 0.316 | 0.519 | 0.646 | 0.547 | 0.458 | 0.493 | 0.373 | 1.03 | 0.688 | 0.672 | 0.689 | 0.451 |
| HARA | 1.1 | – | 0.746 | 0.652 | 0.262 | 0.392 | 0.673 | 0.596 | 0.524 | 0.852 | 0.344 | 1.04 | 0.945 | 0.836 | 0.766 | 0.499 |
| HCC-15 | 0.986 | – | 0.915 | 0.828 | 0.717 | 0.732 | 0.788 | – | 0.626 | 0.651 | 0.598 | 0.811 | – | 0.725 | 0.687 | 0.63 |
| HCC-44 | 0.891 | 0.82 | 0.969 | 0.96 | 0.962 | 1.02 | 0.945 | 0.952 | 1 | 0.965 | 1.01 | 0.738 | 0.803 | 0.789 | 0.747 | 0.85 |
| HCC-78 | 0.998 | 0.756 | 0.698 | 0.703 | 0.477 | 0.385 | 1.05 | 0.661 | 0.695 | 0.636 | 0.369 | 0.375 | 0.328 | 0.266 | 0.27 | 0.269 |
| HCC-366 | 1 | – | 0.977 | 1 | 0.383 | 0.859 | 0.376 | – | 0.384 | 0.335 | 0.215 | 0.539 | – | 0.501 | 0.526 | 0.413 |
| HCC-827 | 1.04 | 0.904 | 0.887 | 0.912 | 0.483 | 0.786 | 0.62 | 0.573 | 0.477 | 0.563 | 0.443 | 0.904 | 0.889 | 0.844 | 0.787 | 0.781 |

— the supplement of paper PMC10307832
